In ChEMBL document CHEMBL3588856, “Structure-Based Development of a Protein-Protein Interaction Inhibitor Targeting Tumor Necrosis Factor Receptor-Associated Factor 6” (J Med Chem, 2015):
Active and inactive are the calls of the source. No cut-off for these calls is given here.

What was measured:
[1] = target: T1, TNF receptor-associated factor 6 (Homo sapiens, UniProt Q9Y4K3); assay: Inhibition of human TRAF6 interaction with biotinylated RANK peptide by NMR interaction analysis
T1 sequence (Q9Y4K3 whole entry): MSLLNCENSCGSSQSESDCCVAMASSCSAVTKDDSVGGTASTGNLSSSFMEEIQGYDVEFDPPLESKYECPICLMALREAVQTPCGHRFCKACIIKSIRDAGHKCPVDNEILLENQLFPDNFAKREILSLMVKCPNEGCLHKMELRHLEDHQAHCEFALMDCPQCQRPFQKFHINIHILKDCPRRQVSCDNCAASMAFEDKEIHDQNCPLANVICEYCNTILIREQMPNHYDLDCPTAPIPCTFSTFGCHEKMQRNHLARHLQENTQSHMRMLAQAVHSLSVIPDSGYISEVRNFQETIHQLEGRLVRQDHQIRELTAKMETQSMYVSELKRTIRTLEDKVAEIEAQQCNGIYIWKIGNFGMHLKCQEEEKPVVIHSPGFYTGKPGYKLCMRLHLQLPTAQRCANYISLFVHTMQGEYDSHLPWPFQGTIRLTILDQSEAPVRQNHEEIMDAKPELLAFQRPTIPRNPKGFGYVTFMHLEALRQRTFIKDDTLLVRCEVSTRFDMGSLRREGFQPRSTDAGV

[2] = target: T2, TNF receptor-associated factor 6 (Homo sapiens) (UniProt Q9Y4K3); assay: Induction of human TRAF6 aggregation by NMR titration
T2 sequence (whole entry): T1 sequence (Q9Y4K3 whole entry)

Monocyte [3] = assay: Inhibition of BALB/c mouse primary bone marrow derived monocytes differentiation after 7 days by osteoclast differentiation assay; assay type: functional, cell-based
[4] = Cytotoxicity against BALB/c mouse primary bone marrow derived monocytes after 7 days by osteoclast differentiation/AlamarBlue assay; assay type: cell-based; conditions: monocyte, 168 h
[5] = target: T2, TNF receptor-associated factor 6 (Homo sapiens); assay: Binding affinity to human TRAF6 using immobilized biotinylated RANK peptide from by SPR analysis
[6] = target: T2, TNF receptor-associated factor 6 (Homo sapiens); conditions: 200 uM
Description: Competitive inhibition of human TRAF6 interaction with biotinylated RANK peptide at 200 uM by NMR interaction analysis

Monocyte [7] = assay: Inhibition of BALB/c mouse primary bone marrow derived monocytes differentiation after 7 days at 150 uM by osteoclast differentiation assay; assay type: functional; conditions: 168 h

Kd [1] | Activity [2] | inhibition [5] | inhibition [6] | Compound | inhibition (Monocyte [3]) | Activity [4] | inhibition at 150 µM (Monocyte [7])
990 µM |  |  |  | CS(=O)(=O)NC(=O)c1ccc(NC(=O)Cn2c(=O)sc3ccc(Cl)cc32)cc1 |  |  | 
1700 µM |  |  |  | O=C(Cn1c(=O)sc2ccc(Cl)cc21)Nc1ccc(C(=O)O)cc1 |  |  | 
1900 µM | inactive | Active |  | O=C(Cn1c(=O)sc2ccccc21)Nc1ccc(C(=O)O)cc1 | Active | Non-toxic | 
35 µM | inactive |  | Active | COc1ccc(S(=O)(=O)NC(=O)c2ccc(NC(=O)Cn3c(=O)sc4ccc(Cl)cc43)cc2)cc1Cl |  |  | 40%
